pIC50: −log10 of the molar value. Counter-ions that a name gives are not always drawn. The source made the active and inactive calls.
How the values were obtained:
[1] = target: T1, Leucine aminopeptidase (Plasmodium falciparum 3D7, UniProt Q8IL11); assay: P. falciparum M17LAP inhibitors, primary screen, biochemical, fluorogenic H-Leu-NHMec substrate, 1536-well (AID 1619); format: functional
T1 sequence (Q8IL11 whole entry): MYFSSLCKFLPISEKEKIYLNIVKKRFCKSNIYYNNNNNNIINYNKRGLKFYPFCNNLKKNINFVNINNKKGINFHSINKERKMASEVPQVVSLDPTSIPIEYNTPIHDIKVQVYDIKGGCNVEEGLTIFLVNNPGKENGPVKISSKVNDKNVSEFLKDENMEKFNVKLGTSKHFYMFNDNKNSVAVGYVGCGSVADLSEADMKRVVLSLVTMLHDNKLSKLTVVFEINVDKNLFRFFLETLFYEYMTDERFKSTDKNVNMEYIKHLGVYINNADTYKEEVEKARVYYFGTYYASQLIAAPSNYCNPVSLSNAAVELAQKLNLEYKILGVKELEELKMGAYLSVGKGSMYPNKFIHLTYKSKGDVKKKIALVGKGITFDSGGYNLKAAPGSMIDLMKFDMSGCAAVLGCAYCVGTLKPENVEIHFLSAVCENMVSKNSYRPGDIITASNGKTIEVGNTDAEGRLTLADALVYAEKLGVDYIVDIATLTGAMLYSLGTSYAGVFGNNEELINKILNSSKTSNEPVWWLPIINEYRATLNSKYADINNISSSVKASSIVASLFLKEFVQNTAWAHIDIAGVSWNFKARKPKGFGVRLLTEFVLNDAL

[2] = target: Aspartyl aminopeptidase (Plasmodium falciparum 3D7, UniProt Q8I2J3); assay: Counterscreen for inhibitors of M1 and M17 aminopeptidases: QFRET-based biochemical high throughput dose response assay for inhibitors of the Plasmodium falciparum M18 Aspartyl Aminopeptidase (PFM18AAP). [Related PubChem assays: 1619 (Screening assay (M17LAP inhibitors).), 1445 (Screening assay (M1AAP inhibitors).)]
Aspartyl aminopeptidase, sequence (Q8I2J3 whole entry): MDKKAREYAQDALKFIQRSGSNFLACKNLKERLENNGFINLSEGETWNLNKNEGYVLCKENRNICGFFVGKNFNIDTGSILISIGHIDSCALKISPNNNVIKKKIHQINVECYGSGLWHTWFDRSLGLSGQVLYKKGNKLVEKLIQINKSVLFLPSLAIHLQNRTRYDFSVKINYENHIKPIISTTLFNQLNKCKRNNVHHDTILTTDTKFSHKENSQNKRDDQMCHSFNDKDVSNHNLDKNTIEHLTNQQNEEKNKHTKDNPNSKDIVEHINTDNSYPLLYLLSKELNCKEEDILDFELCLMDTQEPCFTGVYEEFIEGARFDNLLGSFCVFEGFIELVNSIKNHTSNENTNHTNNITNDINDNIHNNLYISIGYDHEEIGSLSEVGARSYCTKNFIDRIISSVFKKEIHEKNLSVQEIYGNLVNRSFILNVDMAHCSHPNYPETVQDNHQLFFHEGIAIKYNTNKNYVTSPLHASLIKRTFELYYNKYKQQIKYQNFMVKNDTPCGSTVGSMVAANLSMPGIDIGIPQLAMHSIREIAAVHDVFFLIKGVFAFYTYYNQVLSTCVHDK

[3] = target: Procathepsin L (Homo sapiens, UniProt P07711); assay: cathepsin L inhibitors, dose response, counter-screen for M1/M17 aminopeptidase inhibitor project, biochemical, QFRET, 1536-well (AID 2214)
Procathepsin L, sequence (P07711 whole entry): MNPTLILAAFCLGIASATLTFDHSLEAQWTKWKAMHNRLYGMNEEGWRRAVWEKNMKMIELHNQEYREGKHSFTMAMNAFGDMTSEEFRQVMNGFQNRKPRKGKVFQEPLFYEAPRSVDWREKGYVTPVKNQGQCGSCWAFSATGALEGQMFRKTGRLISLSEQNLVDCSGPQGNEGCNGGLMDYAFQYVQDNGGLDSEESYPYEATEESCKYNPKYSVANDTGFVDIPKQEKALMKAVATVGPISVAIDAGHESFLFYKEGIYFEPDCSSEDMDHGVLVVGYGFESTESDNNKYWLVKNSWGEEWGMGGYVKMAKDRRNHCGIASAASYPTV

[4] = target: T2, Long-chain-fatty-acid--AMP ligase FadD28 (Mycobacterium tuberculosis, UniProt P9WQ59); assay: Fluorescence polarization aasay to screen for inhibitors that compete for the binding of FadD28 to a bisubstrate Measured in Biochemical System Using Plate Reader - 2147-01_Inhibitor_Dose_CherryPick_Activity.; format: functional, Mycobacterium tuberculosis H37Rv
T2 sequence (P9WQ59 whole entry): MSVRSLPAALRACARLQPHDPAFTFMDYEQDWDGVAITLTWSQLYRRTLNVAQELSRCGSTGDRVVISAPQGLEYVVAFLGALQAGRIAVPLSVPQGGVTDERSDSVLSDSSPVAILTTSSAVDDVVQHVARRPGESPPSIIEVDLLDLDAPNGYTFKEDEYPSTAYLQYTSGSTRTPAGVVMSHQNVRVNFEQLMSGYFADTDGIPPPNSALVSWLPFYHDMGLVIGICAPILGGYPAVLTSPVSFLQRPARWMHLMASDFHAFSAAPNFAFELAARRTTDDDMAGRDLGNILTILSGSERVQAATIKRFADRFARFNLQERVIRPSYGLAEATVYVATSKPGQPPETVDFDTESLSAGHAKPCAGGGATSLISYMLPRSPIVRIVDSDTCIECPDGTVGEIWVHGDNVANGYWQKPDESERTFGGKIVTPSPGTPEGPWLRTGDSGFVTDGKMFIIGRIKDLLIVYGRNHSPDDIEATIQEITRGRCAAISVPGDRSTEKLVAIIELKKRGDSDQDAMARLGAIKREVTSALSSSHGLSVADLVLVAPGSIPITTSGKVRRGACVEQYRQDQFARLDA

[5] = growth suppression of PTEN-null colon cells, dose response, cell-based, HCT116 PTEN knockout (AID 1047); format: functional;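 further: HCT116 colon tumor cells with PTEN knocked out; cells exposed to compound for 60 hours before readout; potency for loss of cell viability measured by luminescence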
[6] = target: Protein-tyrosine kinase 2-beta (Homo sapiens, UniProt Q14289);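 further: potency of inhibitors of PYK2 kinase phosphorylation of poly-GT substrate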
[7] = growth suppression of beta-catenin-knockout colon cells, dose response, cell-based, HCT116, human colon tumor (AID 1045); format: functional;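 further: HCT116 colon tumor cells with beta catenin knocked out; cells exposed to compound for 60 hours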
[8] = Luminescence Cell-Based Dose Retest to Confirm Inhibitors of Cancer Stem Cells. [Related pubchem assays (depositor defined):AID2717, AID2721]; format: functional; details: Homo sapiens
[9] = target: T3, Microphthalmia-associated transcription factor (Homo sapiens, UniProt O75030); assay: TRPM1 promoter luciferase signal decrease, dose response, MITF inhibitor project, cell-based, SK-MEL-5, cherry-picked, set 3 (AID 493073); format: functional
T3 sequence (O75030 whole entry): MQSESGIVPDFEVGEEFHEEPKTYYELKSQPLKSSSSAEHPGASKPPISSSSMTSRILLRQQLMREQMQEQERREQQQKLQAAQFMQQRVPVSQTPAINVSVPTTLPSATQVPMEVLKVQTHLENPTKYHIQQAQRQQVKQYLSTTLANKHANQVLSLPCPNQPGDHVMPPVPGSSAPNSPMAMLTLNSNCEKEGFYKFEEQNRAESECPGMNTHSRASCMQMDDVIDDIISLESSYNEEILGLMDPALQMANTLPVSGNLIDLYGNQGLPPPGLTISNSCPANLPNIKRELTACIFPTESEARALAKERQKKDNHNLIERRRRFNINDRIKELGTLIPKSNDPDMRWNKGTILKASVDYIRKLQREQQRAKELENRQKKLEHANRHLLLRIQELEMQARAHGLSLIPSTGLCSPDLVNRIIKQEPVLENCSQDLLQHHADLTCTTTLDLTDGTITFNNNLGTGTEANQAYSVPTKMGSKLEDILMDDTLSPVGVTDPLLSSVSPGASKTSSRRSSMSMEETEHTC

[10] = target: T4, Apoptotic protease-activating factor 1 (Homo sapiens, UniProt O14727); format: functional
T4 sequence (O14727 whole entry): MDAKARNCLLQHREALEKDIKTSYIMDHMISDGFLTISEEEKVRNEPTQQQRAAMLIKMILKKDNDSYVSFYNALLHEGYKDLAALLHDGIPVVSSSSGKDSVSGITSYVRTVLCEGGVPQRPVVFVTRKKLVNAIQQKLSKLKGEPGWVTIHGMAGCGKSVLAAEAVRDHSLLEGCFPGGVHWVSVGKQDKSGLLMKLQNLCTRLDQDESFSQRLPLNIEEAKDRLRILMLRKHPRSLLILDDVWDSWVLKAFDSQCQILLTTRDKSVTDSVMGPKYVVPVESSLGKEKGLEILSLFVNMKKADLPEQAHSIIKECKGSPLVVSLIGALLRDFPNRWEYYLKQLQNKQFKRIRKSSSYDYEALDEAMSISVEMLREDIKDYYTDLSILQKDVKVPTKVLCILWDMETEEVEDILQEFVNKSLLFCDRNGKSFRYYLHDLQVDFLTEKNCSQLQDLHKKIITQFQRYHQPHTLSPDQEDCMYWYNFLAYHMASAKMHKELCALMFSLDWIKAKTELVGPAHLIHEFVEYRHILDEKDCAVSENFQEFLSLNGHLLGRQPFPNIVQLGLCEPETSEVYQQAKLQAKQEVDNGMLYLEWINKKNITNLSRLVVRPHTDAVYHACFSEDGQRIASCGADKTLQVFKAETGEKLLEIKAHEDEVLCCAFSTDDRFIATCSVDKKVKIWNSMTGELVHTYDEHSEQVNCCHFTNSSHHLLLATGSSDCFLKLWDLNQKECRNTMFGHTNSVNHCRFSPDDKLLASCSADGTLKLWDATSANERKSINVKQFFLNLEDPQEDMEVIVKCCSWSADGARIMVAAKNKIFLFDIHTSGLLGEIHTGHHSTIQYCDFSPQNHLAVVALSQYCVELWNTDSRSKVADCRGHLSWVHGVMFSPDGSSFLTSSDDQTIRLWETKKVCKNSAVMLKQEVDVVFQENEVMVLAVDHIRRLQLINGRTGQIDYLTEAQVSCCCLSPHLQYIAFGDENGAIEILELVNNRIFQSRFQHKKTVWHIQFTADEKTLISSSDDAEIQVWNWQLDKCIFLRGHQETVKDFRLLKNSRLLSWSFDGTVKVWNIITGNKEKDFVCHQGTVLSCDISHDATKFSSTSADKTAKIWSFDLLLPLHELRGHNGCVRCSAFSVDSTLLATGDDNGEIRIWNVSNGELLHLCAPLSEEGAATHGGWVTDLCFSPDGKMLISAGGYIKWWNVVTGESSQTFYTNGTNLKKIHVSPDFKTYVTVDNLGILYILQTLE

[11] = system: A-375; assay: A375 melanoma cell viability reduction, dose response, counter-screen for MITF modulator project, cherry-pick samples, set 2 (AID 540335); format: functional, cell-based; details: Homo sapiens
[12] = target: 26S proteasome non-ATPase regulatory subunit 14 (Homo sapiens, UniProt O00487); assay: inhibition of proteasome subunit RPN11 – biochemical, fluorescence polarization, uHTS hits, confirmation (AID 602368); format: functional
26S proteasome non-ATPase regulatory subunit 14, sequence (O00487 whole entry): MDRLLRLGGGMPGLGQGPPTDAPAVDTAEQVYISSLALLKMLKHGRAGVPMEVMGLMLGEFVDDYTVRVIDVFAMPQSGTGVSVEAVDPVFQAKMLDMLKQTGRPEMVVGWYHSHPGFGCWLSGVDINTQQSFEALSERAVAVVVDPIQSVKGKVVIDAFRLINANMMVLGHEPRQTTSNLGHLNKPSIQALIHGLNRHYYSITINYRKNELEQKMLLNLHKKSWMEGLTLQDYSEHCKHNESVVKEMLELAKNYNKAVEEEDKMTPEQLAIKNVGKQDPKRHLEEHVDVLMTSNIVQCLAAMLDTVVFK

[13] = target: 72 kDa type IV collagenase (Homo sapiens, UniProt P08253); assay: Dose Response validation of uHTS RPN11 inhibitor hits using a MMP-2 Fluorescence assay.; format: functional
72 kDa type IV collagenase, sequence (P08253 whole entry): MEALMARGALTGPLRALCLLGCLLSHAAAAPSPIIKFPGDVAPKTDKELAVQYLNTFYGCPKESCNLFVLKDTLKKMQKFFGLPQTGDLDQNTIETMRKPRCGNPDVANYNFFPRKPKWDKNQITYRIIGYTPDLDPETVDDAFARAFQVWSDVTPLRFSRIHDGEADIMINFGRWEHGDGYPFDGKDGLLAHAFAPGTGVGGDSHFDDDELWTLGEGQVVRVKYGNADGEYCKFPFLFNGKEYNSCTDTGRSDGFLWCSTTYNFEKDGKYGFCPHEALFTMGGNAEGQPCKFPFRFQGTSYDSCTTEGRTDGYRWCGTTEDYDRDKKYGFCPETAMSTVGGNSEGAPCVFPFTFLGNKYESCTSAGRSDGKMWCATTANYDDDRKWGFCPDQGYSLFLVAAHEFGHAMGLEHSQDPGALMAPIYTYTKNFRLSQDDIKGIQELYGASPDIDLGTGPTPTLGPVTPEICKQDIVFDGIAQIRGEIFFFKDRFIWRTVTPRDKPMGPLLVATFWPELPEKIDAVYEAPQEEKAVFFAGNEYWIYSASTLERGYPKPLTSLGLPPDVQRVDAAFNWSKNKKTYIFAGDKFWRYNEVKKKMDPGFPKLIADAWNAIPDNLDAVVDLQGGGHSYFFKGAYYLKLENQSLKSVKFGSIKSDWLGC

[14] = target: Prothrombin (Bos taurus, UniProt P00735); assay: thrombin inhibition, dose response, biochemical, fluorescence polarization, uHTS hits (AID 602369); format: functional
[15] = target: Luciferin 4-monooxygenase (Photinus pyralis, UniProt P08659); assay: Counter Screen for Luciferase-based Assay Positives. [Related pubchem assays: 620, 618, 411 ]
Luciferin 4-monooxygenase, sequence (P08659 whole entry): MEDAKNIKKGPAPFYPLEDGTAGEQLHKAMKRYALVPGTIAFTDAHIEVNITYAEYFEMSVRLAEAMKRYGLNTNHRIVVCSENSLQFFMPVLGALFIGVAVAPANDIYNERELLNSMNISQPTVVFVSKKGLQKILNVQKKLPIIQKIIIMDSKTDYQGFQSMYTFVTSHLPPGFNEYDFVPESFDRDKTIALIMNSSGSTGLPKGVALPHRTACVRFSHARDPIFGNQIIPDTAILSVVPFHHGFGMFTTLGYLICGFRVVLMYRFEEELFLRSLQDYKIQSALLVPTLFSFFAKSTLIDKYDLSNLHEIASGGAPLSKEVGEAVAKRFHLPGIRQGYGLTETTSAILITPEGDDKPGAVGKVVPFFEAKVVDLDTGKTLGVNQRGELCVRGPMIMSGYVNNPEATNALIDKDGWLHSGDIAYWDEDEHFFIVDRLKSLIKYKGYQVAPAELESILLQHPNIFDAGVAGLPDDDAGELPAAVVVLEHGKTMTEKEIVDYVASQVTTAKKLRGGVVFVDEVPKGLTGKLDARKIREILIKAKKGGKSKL

[16] = system: Vero; assay: host cell cytotoxicity of antiviral hits, dose response, cytotoxicity control for West Nile virus antiviral project, secondary assay (AID 1650); format: functional; details: Chlorocebus sabaeus
[17] = target: T5, Kappa-type opioid receptor (Homo sapiens, UniProt P41145); format: functional
T5 sequence (P41145 whole entry): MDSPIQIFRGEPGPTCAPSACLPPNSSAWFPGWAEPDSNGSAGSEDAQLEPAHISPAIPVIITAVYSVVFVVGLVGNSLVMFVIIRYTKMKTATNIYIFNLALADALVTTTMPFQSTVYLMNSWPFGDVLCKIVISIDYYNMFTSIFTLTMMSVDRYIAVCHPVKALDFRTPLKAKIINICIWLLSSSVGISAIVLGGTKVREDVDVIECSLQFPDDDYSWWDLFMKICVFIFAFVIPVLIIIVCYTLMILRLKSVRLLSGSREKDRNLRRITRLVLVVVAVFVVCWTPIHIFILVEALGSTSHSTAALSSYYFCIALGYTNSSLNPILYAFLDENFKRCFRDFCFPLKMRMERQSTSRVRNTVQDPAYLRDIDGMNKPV

[18] = system: HT-1080; assay: cytotoxicity in HT1080 fibrosarcoma cells, cell-based, fluorescence readout (AID 620); format: functional; details: Homo sapiens
[19] = target: Beta-galactosidase (Escherichia coli, UniProt Q8VNN2); format: functional
Beta-galactosidase, sequence (Q8VNN2 whole entry): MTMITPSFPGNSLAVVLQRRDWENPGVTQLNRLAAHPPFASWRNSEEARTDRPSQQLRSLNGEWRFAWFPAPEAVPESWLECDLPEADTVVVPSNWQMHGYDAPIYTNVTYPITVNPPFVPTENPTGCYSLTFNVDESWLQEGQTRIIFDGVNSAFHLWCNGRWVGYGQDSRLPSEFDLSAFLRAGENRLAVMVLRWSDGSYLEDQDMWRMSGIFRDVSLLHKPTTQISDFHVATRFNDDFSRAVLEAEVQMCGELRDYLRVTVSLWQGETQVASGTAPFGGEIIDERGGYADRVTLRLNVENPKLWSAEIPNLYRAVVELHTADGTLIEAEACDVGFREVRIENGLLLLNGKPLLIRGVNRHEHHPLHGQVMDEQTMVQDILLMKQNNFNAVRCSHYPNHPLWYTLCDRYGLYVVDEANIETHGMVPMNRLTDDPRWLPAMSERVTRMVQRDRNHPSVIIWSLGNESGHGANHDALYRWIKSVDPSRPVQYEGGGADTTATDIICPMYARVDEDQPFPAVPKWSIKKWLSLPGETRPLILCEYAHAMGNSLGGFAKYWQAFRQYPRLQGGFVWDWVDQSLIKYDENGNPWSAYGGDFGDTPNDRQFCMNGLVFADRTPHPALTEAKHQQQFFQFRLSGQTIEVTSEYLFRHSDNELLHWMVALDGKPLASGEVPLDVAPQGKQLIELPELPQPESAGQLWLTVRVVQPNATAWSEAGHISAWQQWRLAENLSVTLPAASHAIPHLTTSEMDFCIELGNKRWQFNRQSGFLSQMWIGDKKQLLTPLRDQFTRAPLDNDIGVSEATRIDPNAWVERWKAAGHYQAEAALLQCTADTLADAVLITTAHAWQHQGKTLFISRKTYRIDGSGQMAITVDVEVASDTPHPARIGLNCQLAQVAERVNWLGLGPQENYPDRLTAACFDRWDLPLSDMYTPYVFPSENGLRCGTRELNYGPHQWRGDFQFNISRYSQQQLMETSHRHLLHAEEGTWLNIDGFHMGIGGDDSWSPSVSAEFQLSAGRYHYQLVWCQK

[20] = target: T5, Kappa-type opioid receptor; format: functional; remark: listed apart in the source
[21] = cytotoxicity in HEK-293T cells, dose response, cytotoxicity control for TCR NF-kB inhibitor project, luminescence, T-cell screen hits (AID 489026); format: functional, cell-based;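 further: cells exposed to compound about 14 hours before the viability readout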
[22] = target: Nonstructural protein 1 (Influenza A virus, UniProt Q194T2); format: functional, Influenza A virus (A/California/07/2009(H1N1))
Nonstructural protein 1, sequence (Q194T2 whole entry): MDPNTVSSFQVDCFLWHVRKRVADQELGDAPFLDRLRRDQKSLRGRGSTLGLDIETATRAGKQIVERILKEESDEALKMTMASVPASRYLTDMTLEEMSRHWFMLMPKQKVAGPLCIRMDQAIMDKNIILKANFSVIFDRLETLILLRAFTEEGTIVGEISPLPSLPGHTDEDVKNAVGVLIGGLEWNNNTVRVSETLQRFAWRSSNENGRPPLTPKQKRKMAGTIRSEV

[23] = target: T6, Heat shock factor protein 1 (Mus musculus, UniProt P38532); assay: HSF1 potentiators in luciferase reporter cells, confirmation, cell-based, NIH3T3, luminescence, dose retest (AID 435004); format: functional;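 further: stress induced by proteasome inhibitor MG132 added 30 min after compound; luciferase reporter driven by HSF1 response element in NIH3T3 cells; actives raise luminescence as potentiators of the MG132 stress response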
T6 sequence (P38532 whole entry): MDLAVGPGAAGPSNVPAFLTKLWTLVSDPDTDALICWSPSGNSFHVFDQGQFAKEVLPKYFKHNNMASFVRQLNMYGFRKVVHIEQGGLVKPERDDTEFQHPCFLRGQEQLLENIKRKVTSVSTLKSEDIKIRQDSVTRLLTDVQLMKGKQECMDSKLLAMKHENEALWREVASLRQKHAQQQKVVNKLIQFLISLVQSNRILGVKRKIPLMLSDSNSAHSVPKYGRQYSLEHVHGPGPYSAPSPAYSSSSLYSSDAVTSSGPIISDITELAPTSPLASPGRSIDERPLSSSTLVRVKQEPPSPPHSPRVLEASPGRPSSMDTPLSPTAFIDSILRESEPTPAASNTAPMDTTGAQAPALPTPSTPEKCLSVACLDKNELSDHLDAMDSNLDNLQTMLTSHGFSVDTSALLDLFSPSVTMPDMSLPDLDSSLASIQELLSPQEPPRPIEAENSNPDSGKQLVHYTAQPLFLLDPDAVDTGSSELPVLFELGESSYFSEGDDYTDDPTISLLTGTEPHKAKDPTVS

[24] = system: CHO; assay: cytotoxicity in TLR9-MyD88 CHO cells, dose response, cytotoxicity control for TLR9-MyD88 binding inhibitor project, cell-based, luminescence (AID 588339); format: functional, hamster; details: Cricetulus griseus;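 further: CHO cells stably coexpressing TLR9 and MyD88 fusions from primary screen; compound exposure lasted 48 hours before viability readout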
[25] = target: Heat shock protein HSP 90-alpha (Homo sapiens, UniProt P07900); format: functional, organism-based
[26] = inhibitors of Vif binding to APOBEC3G peptide, primary screen, biochemical, TR-FRET, GST-Vif 1-94, biotin-A3G peptide, dose response retest (AID 1117319); format: functional;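 further: TR-FRET signal of purified GST-Vif binding a biotinylated A3G peptide; inhibitors lower the FRET signal by blocking Vif and A3G binding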
[27] = Vero cell cytotoxicity, dose response, cytotoxicity control for Vif-APOBEC3G degradation inhibitor project, Vero cells (AID 1117358); format: functional; details: Human immunodeficiency virus 1, Vero
[28] = target: 5-hydroxytryptamine receptor 1A (Homo sapiens, UniProt P08908); format: functional
5-hydroxytryptamine receptor 1A, sequence (P08908 whole entry): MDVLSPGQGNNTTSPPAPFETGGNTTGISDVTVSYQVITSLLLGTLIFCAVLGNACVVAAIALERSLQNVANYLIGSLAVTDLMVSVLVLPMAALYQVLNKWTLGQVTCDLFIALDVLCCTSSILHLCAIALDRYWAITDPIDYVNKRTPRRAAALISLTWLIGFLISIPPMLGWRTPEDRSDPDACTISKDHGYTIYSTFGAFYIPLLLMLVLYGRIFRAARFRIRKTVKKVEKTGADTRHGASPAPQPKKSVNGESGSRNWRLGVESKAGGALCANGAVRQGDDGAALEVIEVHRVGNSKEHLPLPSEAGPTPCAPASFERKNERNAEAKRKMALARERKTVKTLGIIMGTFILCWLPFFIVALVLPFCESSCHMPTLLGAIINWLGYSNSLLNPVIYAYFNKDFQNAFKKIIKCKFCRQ

[29] = target: Exodeoxyribonuclease V (Escherichia coli (strain K12), UniProt P04993+P07648+P08394); assay: E. coli RecBCD inhibitors, dose response, counter-screen for AddAB inhibitor project, absorbance, V66 E. coli, mutant T4 phage (AID 492957); format: functional, cell-based, Escherichia coli str. K-12 substr. MG1655
[30] = Counterscreen for AddAB inhibitors: absorbance-based bacterial cell-based high throughput dose response assay for inhibitors of bacterial viability. [Related pubchem assays (depositor defined):AID435030, AID449728, AID449731, AID488942, AID488955, AID488956]; format: functional
[31] = target: Voltage-gated inwardly rectifying potassium channel KCNH2 (Homo sapiens, UniProt Q12809); details: Potency;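 further: confirmatory quantitative high-throughput screen measuring inhibition of hERG channel activity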

CCOc1ccc(NC(=O)C2C(C(=O)O)C3(Cl)C(Cl)=C(Cl)C2(Cl)C3(Cl)Cl)cc1 (stereo unspecified)
IC50 [1]: < 1 µM (active)
IC50 [2]: > 73.5 µM (not active)
IC50 [3]: > 59.6 µM (not active)
AC50 [4]: 11.5 µM (active)

CCOc1ccc2nc(NC3=NC(=O)CC(c4ccc(OC)cc4)N3)nc(C)c2c1 (stereo unspecified)
EC50 [5]: 9.86 µM (active)
IC50 [6]: 5.85 µM (active)
EC50 [7]: 7.4 µM (active)
AC50 [8]: 8.71 µM (active)
AC50 [9]: 9.49 µM (active)
IC50 [10]: 17.6 µM (active)
AC50 [11]: 27.7 µM (active)
IC50 [12]: 22 µM (active)
IC50 [13]: > 100 µM (inactive)
IC50 [14]: 77.6 µM (active)

O=S1(=O)Nc2c(ccc3cccnc23)-c2ccccc21
EC50 [15]: 2.82 µM (active)
CC50 [16]: 4.21 µM (active)
IC50 [17]: 1.3 µM (active)
EC50 [18]: > 50 µM (not active)
EC50 [19]: > 31.5 µM (inactive)
pIC50 [20]: < 4.49
IC50 [21]: > 80 µM (inactive)
IC50 [22]: 3.63 µM (active)
EC50 [23]: 2.76 µM (active)
IC50 [24]: 1.77 µM (active)
AC50 [25]: < 195 nM (active)
IC50 [26]: > 100 µM (active)
CC50 [27]: 13.8 µM (active)

Cc1cc(C(C)(C)C)cc(C)c1CC1=NCCN1 [XYLOMETAZOLINE HYDROCHLORIDE]
EC50 [28]: 129 nM (active)
IC50 [29]: > 119 µM (inactive)
IC50 [30]: 29.7 µM (inactive)
AC50 [31]: 14.1 µM (inconclusive)
